In PubChem BioAssay (NCI):
Where “and” joins values, the source holds several entries; their conditions need not be identical. Identical values can stand only once.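 A five-concentration, 48-hour dose response in 96-well plates underlies each endpoint, interpolated linearly between surrounding concentrations. GI50: concentration for 50% inhibition of growth. TGI: total growth inhibition.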

What was measured:
Test in all cases: NCI-60 cell line screen, 48 h
[1] = system: 786-0 renal
[2] = system: DU-145 prostate
[3] = system: HCT-15 colon
[4] = system: LOX IMVI melanoma
[5] = system: M14 melanoma
[6] = system: MALME-3M melanoma
[7] = system: OVCAR-4 ovarian
[8] = system: OVCAR-8 ovarian
[9] = system: RXF 393 renal
[10] = system: IGROV1 ovarian

Structure (SMILES) | GI50 [1] [µM] | TGI [1] [µM] | GI50 [2] | TGI [2] [µM] | GI50 [3] | TGI [3] [µM] | GI50 [4] | TGI [4] [µM] | GI50 [5] [µM] | TGI [5] [µM] | GI50 [6] | TGI [6] | GI50 [7] | TGI [7] [µM] | GI50 [8] | TGI [8] [µM] | GI50 [9] [µM] | TGI [9] [µM] | TGI [10] [µM] | GI50 [10]
COc1ccc(NC(=O)c2ccc(C(F)(F)F)nc2Nc2ccc(Cl)cc2C)cc1Cl | 9.41 | 23.1 | 3.75 µM | 14.2 | 7.12 µM | 20.5 | 3.96 µM | 13.5 | 7.14 | 22.3 | 15.7 µM | 40.1 µM | 3.18 µM | 17.5 | 7.67 µM | 24.3 | 12.5 | 26.8 | – | –
O=C(O)c1nn(-c2ccc(Cl)cc2)c2c1C(=O)c1ccccc1C2=O | – | > 100 | – | > 100 | – | > 100 | – | > 100 | – | 63.9 | – | 28.1 µM | – | > 100 | – | > 100 | – | > 100 | > 100 | –
CC1(C)CC[C@]2(C(=O)NCCNCCN)CC[C@]3(C)C(=CC[C@@H]4[C@@]5(C)CCC(=O)C(C)(C)[C@@H]5CC[C@]43C)[C@@H]2C1 | 1.71 | 3.09 | 1.85 µM | 3.41 | 1.79 µM | 3.29 | 1.81 µM | 3.26 | 1.87 | 3.5 | 1.83 µM | 3.43 µM | 1.89 µM | 3.66 | 2.15 µM | 4.9 | 1.57 | 2.93 | 3.11 | 1.69 µM
CN1CCN(c2ccncc2S(=O)(=O)N2CCN(C)CC2)CC1 | – | > 100 | – | > 100 | – | > 100 | – | > 100 | – | > 100 | – | > 100 µM | – | > 100 | – | > 100 | – | > 100 | > 100 | –
Cn1cc(-c2ncnc3ccc(-c4cnc(Cl)c(NS(C)(=O)=O)c4)cc23)c2ccccc21 | 1.44 | > 100 | 1.05 µM | > 100 | 0.447 µM | > 71.1 | 0.48 µM | 11.8 | 0.976 | > 100 | 0.227 µM | 2.48 µM | 0.921 µM | 6.99 | 1.72 µM | > 100 | 0.435 | 4.05 | 0.852 | 0.0964 µM
NC(CCl)=NCC12CC3CC(CC(C3)C1)C2 | 0.966 | 13.2 | 0.608 µM | 3.75 | 0.807 µM | 13.7 | 0.805 µM | 2.67 | 1.32 | 4.39 | 6.32 µM | 27.3 µM | 1.87 µM | 17.4 | 0.877 µM | 19.4 | 0.44 | 5.4 | 31.7 | 0.525 µM
O=C(N/N=C/c1ccc([N+](=O)[O-])cc1)c1ccccc1Nc1ccnc(C(F)(F)F)c1 | 32.7 | > 100 | 11.9 µM | 45.5 | 3.8 µM | > 100 | 19.8 µM | > 100 | 19.2 | 58.7 | 10.7 µM | 33.6 µM | 14.2 µM | 56.3 | 11.6 µM | 49.8 | 15.4 | 42.8 | 19.2 | 6.25 µM
CCC(CO)Nc1nc(NCc2ccccc2)c2n[nH]c(C(C)C)c2n1 (stereo not given) | 6.68 | 21.5 | 3.73 µM | 16.6 | 14.7 µM | 49.7 | 7.55 µM | 20.9 | 6.21 | 20.2 | 13 µM | 27.4 µM | 6.81 µM | 25.6 | 8.98 µM | 31.1 | 5.89 | 21 | 25.6 | 3.44 µM
O=C1/C(=C/c2ccc(Cl)cc2)N=C(c2ccccc2)N1c1cc(C(F)(F)F)ccc1Cl | 14.4 | 50.6 | 31.2 µM | > 100 | 18.9 µM | 86.6 | 16.5 µM | 41.2 | 22 | 90.1 | 27.7 µM | 86.5 µM | 20.2 µM | 89.7 | 28.6 µM | > 100 | 27.5 | > 100 | 85.7 | 18.5 µM
C[C@]1(c2nc3c(C(N)=O)cccc3[nH]2)CCCN1 | > 100 | > 100 | 74 µM and > 100 µM | > 100 | 54.4 µM and > 100 µM | > 100 | 66.1 µM and 97.7 µM | > 100 | > 100 | > 100 | 43.4 µM and > 85.8 µM | 97.9 µM and > 100 µM | 66.1 µM and > 100 µM | > 100 | 69.5 µM and 99.8 µM | > 100 | > 90.3 | > 100 | > 100 | 32.7 µM and 60.5 µM
Cc1cccc2c(=O)c3c(sc12)c(NCCCN)nc1ccccc13 | 1.69 | 3.28 | 1.39 µM | 2.78 | 1.35 µM | 2.84 | 1.46 µM | 2.98 | 1.58 | 3.13 | 1.61 µM | 3.09 µM | 1.58 µM | 3.25 | – | – | 1.48 | 2.87 | 2.63 | 1.18 µM
N#Cc1c(N)c(C(=O)c2ccc3c(c2)OCCO3)n2c1CCCC2 | 5.31 | > 100 | 4.45 µM | > 100 | 1.04 µM | > 100 | 6.92 µM | > 100 | 2.08 | > 100 | 2.6 µM | > 100 µM | > 69.1 µM | > 100 | 4.21 µM | > 100 | 2.29 | 17.9 | > 100 | 6.92 µM
Cn1cnc(SC2=CC(=O)C=C3S[C@H]4C[C@@]23c2c(c(O)c3c5c2=NCCC=5C=N3)N4)c1CC(N)C(=O)O (stereo not given in full) | 13.6 | 26.8 | – | 32 | 18.4 µM | 33.7 | 4.64 µM | 18.6 | 15.1 | 28.6 | 2.37 µM | 5.04 µM | 13.4 µM | 26.2 | 3.81 µM | 14.5 | 10.6 | 23.8 | 23.9 | 11.6 µM
